# Test results published in patent US20190375708A1 (VenatoRx Pharmaceuticals, Inc., priority 2018, published 2019).
# How the values were obtained:
# [1] = In vitro cytotoxicity assay (MTT cell viability) in HepG2 cells; assay type: cell-based, human; conditions: human
# Procedure, shortened: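 HepG2 seeded overnight, then 7-day compound exposure (30 μM–1.0 nM, half-log steps), 37 °C. MTT 3-4 h, DMSO solubilization, A492. % of vehicle → CC50, 4-PL fit.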
# [2] = tested on: HBV replication in HepAD38 cells; assay: Anti-HBV replication assay in HepAD38 cells (QPCR of extracellular HBV DNA); assay type: cell-based, HBV (genotype D, serotype ayw); conditions: Hepatitis B virus, 168 h, 7 days incubation, extracellular HBV DNA by QPCR, read-out: Anti-HBV EC50
# Procedure, shortened: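 EC50 values reflect 50% reduction of extracellular HBV DNA, measured by QPCR after 7-day treatment of tetracycline-deprived HepAD38 cells with compound […].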
Compound,CC50 at 7 days [1] [µM],EC50 [2] [µM]
"Cc1c(C(=O)Nc2ccc(F)c(F)c2)c(Cl)c(C(=O)C(=O)NC2(C(F)(F)F)CC2)n1C [Example 376, 4-chloro-N-(3,4-difluorophenyl)-1,2-dimethyl-5-(2-oxo-2-((1-(trifluoromethyl)cyclopropyl)amino)acetyl)-1H-pyrrole-3-carboxamide]",5 to 30,< 0.05
"CNC(=O)C(=O)c1c(C)c(C(=O)Nc2ccc(F)c(C)c2)c(C)n1C [Example 242, N-(4-fluoro-3-methylphenyl)-1,2,4-trimethyl-5-(2-(methylamino)-2-oxoacetyl)-1H-pyrrole-3-carboxamide]",> 30,0.05 to 0.499
"Cc1cc(NC(=O)c2c(C)c(C(=O)C(=O)N[C@@H]3CCC[C@H]3O)n(C)c2C)ccc1F [Example 95, N-(4-fluoro-3-methylphenyl)-5-(2-(((1R,2R)-2-hydroxycyclopentyl)amino)-2-oxoacetyl)-1,2,4-trimethyl-1H-pyrrole-3-carboxamide]",> 30,< 0.05
"Cc1c(C(=O)Nc2cc(F)c(F)c(F)c2)c(C)n(C)c1C(=O)C(=O)Nc1ccccn1 [Example 318, 1,2,4-trimethyl-5-(2-oxo-2-(pyridin-2-ylamino)acetyl)-N-(3,4,5-trifluorophenyl)-1H-pyrrole-3-carboxamide]",> 30,0.05 to 0.499
"Cc1nc(CCNC(=O)C(=O)c2c(C)c(C(=O)Nc3ccc(F)c(C)c3)c(C)n2C)c(C)s1 [Example 327, 5-(2-((2-(2,5-dimethylthiazol-4-yl)ethyl)amnio)-2-oxoacetyl)-N-(4-fluoro-3-methylphenyl)-1,2,4-trimethyl-1H-pyrrole-3-carboxamide]",> 30,< 0.05
"Cc1cc(NC(=O)c2c(C)c(C(=O)C(=O)NC3(c4noc(C(F)F)n4)CCC3)n(C)c2C)ccc1F [Example 153, 5-(2-((1-(5-(difluoromethyl)-1,2,4-oxadiazol-3-yl)cyclobutyl)amino)-2-oxoacetyl)-N-(4-fluoro-3-methylphenyl)-1,2,4-trimethyl-1H-pyrrole-3-carboxamide]",5 to 30,< 0.05
"Cc1cc(NC(=O)c2c(C)c(C(=O)C(=O)NC3(C(N)=O)CC3)n(C)c2C)ccc1F [Example 37, 5-(2-((1-carbamoylcyclopropyl)amino)-2-oxoacetyl)-N-(4-fluoro-3-methylphenyl)-1,2,4-trimethyl-1H-pyrrole-3-carboxamide]",> 30,< 0.05
"Cc1cc(NC(=O)c2c(C)c(C(=O)C(=O)N[C@@H](C)CCO)n(C)c2C)ccc1F [Example 142, (S)-N-(4-fluoro-3-methylphenyl)-5-(2-((4-hydroxybutan-2-yl)amino)-2-oxoacetyl)-1,2,4-trimethyl-1H-pyrrole-3-carboxamide]",> 30,< 0.05
"Cc1noc(C2(NC(=O)C(=O)c3cc(C(=O)Nc4ccc(F)c(C)c4)c4n3CCCC4)CC2)n1 [Example 418, N-(4-fluoro-3-methylphenyl)-3-(2-((1-(3-methyl-1,2,4-oxadiazol-5-yl)cyclopropyl)amino)-2-oxoacetyl)-5,6,7,8-tetrahydroidolizine-1-carboxamide]",> 30,0.05 to 0.499
"Cc1c(C(=O)Nc2cccc(Cl)c2)c(C)n(C)c1C(=O)C(=O)N[C@H](C)C(F)(F)F [Example 603, (R)-N-(3-chlorophenyl)-1,2,4-trimethyl-5-(2-oxo-2-((1,1,1-trifluoropropan-2-yl)amino)acetyl)-1H-pyrrole-3-carboxamide]",5 to 30,< 0.05
"Cc1cc(NC(=O)c2c(C)c(C(=O)C(=O)NCCN)n(C)c2C)ccc1F [Example 257, 5-(2-((2-aminoethyl)amino)-2-oxoacetyl)-N-(4-fluoro-3-methylphenyl)-1,2,4-trimethyl-1H-pyrrole-3-carboxamide]",5 to 30,0.05 to 0.499
"Cc1cc(NC(=O)c2c(C)c(C(=O)C(=O)N[C@@H]3CCCNC3=O)n(C)c2C)ccc1F [Example 673, (R)-N-(4-fluoro-3-methylphenyl)-1,2,4-trimethyl-5-(2-oxo-2-((2-oxopiperidin-3-yl)amino)acetyl)-1H-pyrrole-3-carboxamide]",> 30,< 0.05
"Cc1cc(NC(=O)c2c(C)c(C(=O)C(=O)N[C@@H](C(=O)O)[C@H](C)O)n(C)c2C)ccc1F [Example 35, (2-(4-((4-fluoro-3-methylphenyl)carbamoyl)-1,3,5-trimethyl-1H-pyrrol-2-yl)-2-oxoacetyl)-D-threonine]",> 30,> 1
"Cc1cc(NC(=O)c2cc(C(=O)C(=O)NC(C)C)n3c2CCCC3)ccc1F [Example 412, N-(4-fluoro-3-methylphenyl)-3-(2-(isopropylamino)-2-oxoacetyl)-5,6,7,8-tetrahydroindolizine-1-carboxamide]",5 to 30,0.05 to 0.499
"Cc1cc(NC(=O)c2c(C)c(C(=O)C(=O)N[C@H](C)C(F)(F)F)n3c2CCCC3)cnc1F [Example 469, (R)-N-(6-fluoro-5-methylpyridin-3-yl)-2-methyl-3-(2-oxo-2-((1,1,1-trifluoropropan-2-yl)amino)acetyl)-5,6,7,8-tetrahydroindolizine-1-carboxamide]",5 to 30,0.5 to 1
"CC[C@H](C)NC(=O)C(=O)c1c(Cl)c(C(=O)Nc2cnc(F)c(C)c2)c2n1CCCC2 [Example 729, (S)-3-(2-(sec-butylamino)-2-oxoacetyl)-2-chloro-N-(6-fluoro-5-methylpyridin-3-yl)-5,6,7,8-tetrahydroindolizine-1-carboxamide]",> 30,0.05 to 0.499
"Cc1cc(NC(=O)c2c(C)c(C(=O)C(=O)NC3C(=O)NCC3(C)C)n(C)c2C)ccc1F (stereo not drawn) [Example 679, 5-(2-((4,4-dimethyl-2-oxopyrrolidin-3-yl)amino)-2-oxoacetyl)-N-(4-fluoro-3-methylphenyl)-1,2,4-trimethyl-1H-pyrrole-3-carboxamide]",> 30,< 0.05
"Cc1cc(NC(=O)c2c(C)c(C(=O)C(=O)NCC3(N)CCCCC3)n(C)c2C)ccc1F [Example 337, 5-(2-(((1-aminocyclohexyl)methyl)amino)-2-oxoacetyl)-N-(4-fluoro-3-methylphenyl)-1,2,4-trimethyl-1H-pyrrole-3-carboxamide]",5 to 30,0.5 to 1
Cc1cc(NC(=O)c2c(Cl)c(C(=O)C(=O)N[C@H](C)C(F)(F)F)n3c2CCCC3)cnc1F [Example 732],> 30,0.05 to 0.499
"COC(=O)[C@@H](NC(=O)C(=O)c1c(C)c(C(=O)Nc2ccc(F)c(C)c2)c(C)n1C)C1CCCCC1 [Example 55, methyl (S)-2-cyclohexyl-2-(2-(4-((4-fluoro-3-methylphenyl)carbamoyl)-1,3,5-trimethyl-1H-pyrrol-2-yl)-2-oxoacetamido)acetate]",0.5 to 4.99,0.5 to 1
"CC(C)(CO)NC(=O)C(=O)c1cc(C(=O)Nc2cc(F)c(F)c(F)c2)c2n1CCCC2 [Example 424, 3-(2-((1-hydroxy-2-methylpropan-2-yl)amino)-2-oxoacetyl)-N-(3,4,5-trifluorophenyl)-5,6,7,8-tetrahydroindolizine-1-carboxamide]",> 30,0.05 to 0.499
"Cc1c(C(=O)Nc2cncc(Cl)c2)c(C)n(C)c1C(=O)C(=O)N[C@H](C)C(F)(F)F [Example 727, (R)-N-(5-chloropyridin-3-yl)-1,2,,4-trimethyl-5-(2-oxo-2-((1,1,1-trifluoropropan-2-yl)amino)acetyl)-1H-pyrrole-3-carboxamide]",> 30,< 0.05
"CC[C@@H](CO)NC(=O)C(=O)c1c(C)c(C(=O)Nc2ccc(F)c(C)c2)c(C)n1CCF [Example 180, (S)-N-(4-fluoro-3-methylphenyl)-1(2-fluoroethyl)-5-(2-((1-hydroxybutan-2-yl)amino)-2-oxoacetyl)-2,4-dimethyl-1H-pyrrole-3-carboxamide]",5 to 30,< 0.05
"Cc1cc(NC(=O)c2c(C)c(C(=O)C(=O)N[C@H](CO)[C@@H](C)O)n(C)c2C)cnc1F [Example 185, 5-(2-(((2R,3R)-1,3-dihydroxybutan-2-yl)amino)-2-oxoacetyl)-N-(6-fluoro-5-methylpyridin-3-yl)-1,2,4-trimethyl-1H-pyrrole--3 carboxamide]",> 30,0.5 to 1
"Cc1cc(NC(=O)c2c(C)c(C(=O)C(=O)NC[C@@H](C)O)n(C)c2C)ccc1F [Example 220, (R)-N-(4-ffluoro-3-methylphenyl)-5-(2-((2-hydroxypropyl)amino)-2-oxoacetyl)-1,2,4-trimethyl-1H-pyrrole-3-carboxamide]",5 to 30,< 0.05
"Cc1cc(NC(=O)c2c(C)c(C(=O)C(=O)NC3(C)CCS(=O)(=O)CC3)n(C)c2C)ccc1F [Example 622, N-(4-fluoro-3-methylphenyl)-1,2,4-trimethyl-5-(2-((4-methyl-1,1-dioxidotetrahydro-2H-thiopyran-4-yl)amino)-2-oxoacetyl)-1H-pyrrole-3-carboxamide]",> 30,< 0.05
"Cc1cc(NC(=O)c2c(C)c(C(=O)C(=O)N[C@@H]3CCOC[C@H]3O)n(C)c2C)ccc1F [Example 149, N-(4-fluoro-3-methylphenyl)-5-(2-(((3S,4R)-3-hydroxytetrahydro-2H-pyran-4-yl)amino)-2-oxoacetyl)-1,2,4-trimethyl-1H-pyrrole-3-carboxamide]",> 30,< 0.05
